This passage reports activity results from patent publication US10464896B2, “Efflux-pump inhibitors and therapeutic uses thereof” (Basilea Pharmaceutica International AG, priority 2015, dated 2019).

In the first assay the test system is E. coli ATCC25922. The assay can be described thus: Antibacterial activity in combination with minocycline (growth inhibition). The format is cell-based. The following applies: Escherichia coli, ATCC25922, compound at 25 μM; minocycline 0.25 μg/mL; OD625 23 h minus 1 h; read-out: residual growth of E. coli ATCC25922 (% of uninhibited control) with minocycline. An outline of the steps: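 Test compound combined with fixed subinhibitory partner antibiotic: linezolid 128 μg/mL for either strain, minocycline 0.25 μg/mL (E. coli) or 8 μg/mL (P. aeruginosa), in caMHB shaken at 37 °C. Residual growth as % of inhibitor-free control, from OD625 at 23 h minus 1 h.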
With `CC(C)COc1cc(CNCC2CNC2)cc(OCc2ccc(C(C)(C)C)cc2)c1` [Example 274], the activity at 25 µM is no more than 10%. As for `C=CCOc1cc(/C=C/c2ccc(C(F)(F)F)cc2)cc(CNCC2CNC2)c1` [Example 275], the activity at 25 µM was no more than 10%. Consider `CC(C)COc1cc(CNCC2CCNC2)cc(OCc2ccc(F)cc2C(F)(F)F)c1` (stereo not shown) [Example 280], for which the activity at 25 µM is no more than 10%.

Regarding `CC(C)COc1cc(CNCC2CCNC2)cc(OCc2ccc(Cl)cc2C(F)(F)F)c1` (stereo not shown) [Example 281], the activity at 25 µM was no more than 10%.

In the case of `CC(C)COc1cc(CNCC2CCNC2)cc(OCc2ccc(C(F)(F)F)cc2Br)c1` (stereo not shown) [Example 282], the activity at 25 µM is no more than 10%.

In the case of `CC(C)COc1cc(CNCC2CCNC2)cc(OCc2ccc(F)nc2F)c1` (stereo not shown) [Example 283], the activity at 25 µM is no more than 10%. As for `C=CCOc1cc(/C=C/c2ccc(C#N)cc2)cc(CNCC2CNC2)c1` [Example 284], the activity at 25 µM is no more than 10%. Regarding `CC(C)COc1cc(CNCC2CCNC2)cc(OCc2ccc(C(F)(F)F)cn2)c1` (stereo not shown) [Example 289], the activity at 25 µM was no more than 10%. On to `CC(C)COc1cc(CNCC2CCNC2)cc(OCc2ccc(C(C)(C)C)cc2Br)c1` (stereo not shown) [Example 290], for which the activity at 25 µM was no more than 10%. Still for that read-out and setting: the result for `CC(C)COc1cc(CNCC2CCNC2)cc(OCc2ccc(C(F)(F)F)nc2)c1` (stereo not shown) [Example 291] reads no more than 10%; that for `C=CCOc1cc(/C=C/c2ccc(C(C)(C)C)cc2)cc(CNCC2CNC2)c1` [Example 292], no more than 10%. As for `C=CCOc1cc(/C=C/c2ccc(OC)cc2)cc(CNCC2CNC2)c1` [Example 294], the activity at 25 µM is no more than 10%. With `CC(C)(C)c1ccc(COc2cc(CNCC3CNC3)cc(C(C)(C)C)c2)cc1` [Example 295], the activity at 25 µM is no more than 10%. On to `C=CCOc1cc(CNCC2CNC2)cc(OCc2ccc(C(C)(C)C)cc2)c1` [Example 296], for which the activity at 25 µM was no more than 10%. Take `CC(C)(C)c1ccc(COc2cc(CNCC3CNC3)cc(OCc3ccccc3)c2)cc1` [Example 297]: the activity at 25 µM is no more than 10%.

Take `C=CCOc1cc(/C=C/c2ccc(C#N)c(C(F)(F)F)c2)cc(CNCC2CNC2)c1` [Example 299]: the activity at 25 µM is no more than 10%. Regarding `C=CCOc1cc(/C=C/c2ccc(C#N)c(C(F)(F)F)c2)cc(CNCC2CCNC2)c1` (stereo not shown) [Example 300], the activity at 25 µM is no more than 10%. In the case of `N#Cc1ccc(/C=C/c2cccc(CNCC3CCNC3)c2)cc1C(F)(F)F` (stereo not shown) [Example 301], the activity at 25 µM is no more than 10%. Consider `C=CCOc1cc(/C=C/c2ccncc2C#N)cc(CNCC2CCNC2)c1` (stereo not shown) [Example 306], for which the activity at 25 µM is no more than 10%. Regarding `C=CCOc1cc(/C=C/c2ccc(C#N)cn2)cc(CNCC2CCNC2)c1` (stereo not shown) [Example 307], the activity at 25 µM is no more than 10%. As for `N#Cc1ccc(/C=C/c2cccc(CNCC3CNC3)c2)cc1C(F)(F)F` [Example 308], the activity at 25 µM is no more than 10%. For `C=CCOc1cc(/C=C/c2cc(C#N)cc(C(F)(F)F)c2)cc(CNCC2CNC2)c1` [Example 309], the activity at 25 µM is no more than 10%.

With `C=CCOc1cc(/C=C/c2ccc(C#N)cc2C(F)(F)F)cc(CNCC2CNC2)c1` [Example 310], the activity at 25 µM was no more than 10%. As to `C=CCOc1cc(/C=C/c2ccc(C(F)(F)F)cc2C#N)cc(CNCC2CNC2)c1` [Example 311], the activity at 25 µM was no more than 10%. As for `N#Cc1ccc(/C=C/c2cccc(CNCC3CNC3)c2)c(C(F)(F)F)c1` [Example 312], the activity at 25 µM is no more than 10%.

With `C=CCOc1cc(/C=C/c2ccc(C#N)cc2C(F)(F)F)cc(CNCC2CCNC2)c1` (stereo not shown) [Example 313], the activity at 25 µM was no more than 10%. In the case of `C=CCOc1cc(/C=C/c2ncccc2C#N)cc(CNCC2CCNC2)c1` (stereo not shown) [Example 315], the activity at 25 µM was no more than 10%.

Turning to `C=CCOc1cc(/C=C/c2cccs2)cc(CNCC2CNC2)c1` [Example 317], the activity at 25 µM is no more than 10%. Still for that read-out and setting: the result for `C=CCOc1cc(/C=C/c2ccsc2)cc(CNCC2CNC2)c1` [Example 318] reads no more than 10%. For the molecule `C=CCOc1cc(/C=C/c2ccc(C(F)(F)F)c(C#N)c2)cc(CNCC2CNC2)c1` [Example 321], the activity at 25 µM was no more than 10%. The same measure, in the same setting: the result for `C=CCOc1cc(CCc2ccc(OC)cc2OC)cc(CNCC2CNC2)c1` [Example 322] reads no more than 10%.

Consider `C=CCOc1cc(/C=C/c2ccnc(C#N)c2)cc(CNCC2CCNC2)c1` (stereo not shown) [Example 324], for which the activity at 25 µM is no more than 10%. For the molecule `C=CCOc1cc(/C=C/c2cncc(C#N)c2)cc(CNCC2CCNC2)c1` (stereo not shown) [Example 325], the activity at 25 µM was no more than 10%. As to `C=CCOc1cc(/C=C/c2ccc(C#N)nc2)cc(CNCC2CCNC2)c1` (stereo not shown) [Example 326], the activity at 25 µM is no more than 10%. Turning to `C=CCOc1cc(/C=C/c2csc(C(C)C)n2)cc(CNCC2CNC2)c1` [Example 327], the activity at 25 µM is no more than 10%.

With `C=CCOc1cc(/C=C/c2c(C#N)cccc2C(F)(F)F)cc(CNCC2CNC2)c1` [Example 328], the activity at 25 µM is no more than 10%. Same read-out and setting: the result for `C=CCOc1cc(/C=C/c2cc(C#N)ccn2)cc(CNCC2CCNC2)c1` (stereo not shown) [Example 329] reads no more than 10%; that for `C=CCOc1cc(/C=C/c2csc(C(C)C)n2)cc(CNCC2CCNC2)c1` (stereo not shown) [Example 330], no more than 10%; that for `CC(C)COc1cc(/C=C/c2ccccn2)cc(CNCC2CCNC2)c1` (stereo not shown) [Example 333], no more than 10%. `CC(C)COc1cc(/C=C/c2ccncc2)cc(CNCC2CCNC2)c1` (stereo not shown) [Example 334]: the activity at 25 µM was no more than 10%.

`C=CCOc1cc(/C=C/c2cccnc2)cc(CNCC2CNC2)c1` [Example 335]: the activity at 25 µM was no more than 10%.

Regarding `C=CCOc1cc(/C=C/c2ccccn2)cc(CNCC2CNC2)c1` [Example 336], the activity at 25 µM was no more than 10%. Turning to `C=CCOc1cc(/C=C/c2ccncc2)cc(CNCC2CNC2)c1` [Example 338], the activity at 25 µM is no more than 10%.

Take `C=CCOc1cc(/C=C/c2ccc(C(N)=O)cc2)cc(CNCC2CNC2)c1` [Example 339]: the activity at 25 µM is no more than 10%. Same read-out and setting: the result for `C=CCOc1cc(/C=C/c2cccc(C(N)=O)c2)cc(CNCC2CNC2)c1` [Example 340] reads no more than 10%. `Clc1ccc(/C=C/c2cc(CNCC3CCNC3)cc(OCCc3ccccn3)c2)c(Br)c1` (stereo not shown) [Example 341]: the activity at 25 µM was no more than 10%. Consider `NC(=O)COc1cc(/C=C/c2ccc(Cl)cc2Br)cc(CNCC2CCNC2)c1` (stereo not shown) [Example 342], for which the activity at 25 µM is no more than 10%. Take `Clc1ccc(/C=C/c2cc(CNCC3CCNC3)cc(OCc3c[nH]cn3)c2)c(Br)c1` (stereo not shown) [Example 344]: the activity at 25 µM was no more than 10%. Turning to `Cn1cnc(COc2cc(/C=C/c3ccc(Cl)cc3Br)cc(CNCC3CCNC3)c2)c1` (stereo not shown) [Example 345], the activity at 25 µM was no more than 10%. For `Clc1ccc(/C=C/c2cc(CNCC3CCNC3)cc(OCc3ccccn3)c2)c(Br)c1` (stereo not shown) [Example 346], the activity at 25 µM was no more than 10%.

For the molecule `Cc1cc(COc2cc(/C=C/c3ccc(Cl)cc3Br)cc(CNCC3CCNC3)c2)no1` (stereo not shown) [Example 347], the activity at 25 µM was no more than 10%.

In the case of `C=CCOc1cc(/C=C/c2nc(C(F)(F)F)cs2)cc(CNCC2CNC2)c1` [Example 348], the activity at 25 µM was no more than 10%. Still for that read-out and setting: the figure for `C=CCOc1cc(/C=C/c2ccc(Cl)cc2Br)cc(CNC(=O)C2CCNCC2)c1` [Example 354, N-[[3-allyloxy-5-[(E)-2-(2-bromo-4-chloro-phenyl)vinyl]phenyl]methyl]piperidine-4-carboxamide] is no more than 10%.

For `C=CCOc1cc(/C=C/c2nc(C3CC3)cs2)cc(CNCC2CCNC2)c1` (stereo not shown) [Example 355], the activity at 25 µM is no more than 10%. On the same count and under the same terms, the result for `C=CCOc1cc(/C=C/c2nc(C3CC3)cs2)cc(CNCC2CNC2)c1` [Example 356] reads no more than 10%. With `C=CCOc1cc(CNCC2CCNC2)cc(CNC(=O)c2ccc(C(C)(C)C)cc2)c1` (stereo not shown) [Example 357], the activity at 25 µM was no more than 10%.

`Cc1nc(COc2cc(/C=C/c3ccc(Cl)cc3Br)cc(CNCC3CCNC3)c2)cs1` (stereo not shown) [Example 359]: the activity at 25 µM is no more than 10%. As for `Clc1ccc(/C=C/c2cc(CNCC3CCNC3)cc(OCc3ccncc3)c2)c(Br)c1` (stereo not shown) [Example 360], the activity at 25 µM is no more than 10%.

As to `Nc1nc(COc2cc(/C=C/c3ccc(Cl)cc3Br)cc(CNCC3CCNC3)c2)cs1` (stereo not shown) [Example 361], the activity at 25 µM is no more than 10%. Consider `C=CCOc1cc(/C=C/c2nc(C(C)C)cs2)cc(CNCC2CNC2)c1` [Example 362], for which the activity at 25 µM is no more than 10%.

For `C=CCOc1cc(CNCC2CCNC2)cc(CNS(=O)(=O)c2ccc(C(C)(C)C)cc2)c1` (stereo not shown) [Example 364], the activity at 25 µM is no more than 10%. On to `C=CCOc1cc(/C=C/c2ccc(Cl)cc2Br)cc(CNC(=O)[C@@H]2CCNC2)c1` [Example 367], for which the activity at 25 µM is no more than 10%. In the case of `C=CCOc1cc(CNCC2CNC2)cc(CNS(=O)(=O)c2ccc(C(C)(C)C)cc2)c1` [Example 369, N-[[3-allyloxy-5-[(azetidin-3-ylmethylamino)methyl]phenyl]methyl]-4-tert-butyl-benzenesulfonamide], the activity at 25 µM was no more than 10%. As to `C=CCOc1cc(CNCC2CNC2)cc(C(=O)NCc2ccc(Cl)cc2Br)c1` [Example 370], the activity at 25 µM was no more than 10%. In the case of `C=CCOc1cc(/C=C/c2ccc(Cl)cc2Br)cc(CNC(=O)CNCC2CNC2)c1` [Example 371], the activity at 25 µM was no more than 10%. The same measure, in the same setting: the result for `C=CCOc1cc(CNCC2CCNC2)cc(C(=O)Nc2ccc(Cl)cc2Br)c1` (stereo not shown) [Example 373] reads no more than 10%; that for `CC(C)COc1cc(/C=C/c2ccccc2C(N)=O)cc(CNCC2CCNC2)c1` (stereo not shown) [Example 375], no more than 10%; that for `C=CCOc1cc(CNCC2CNC2)cc(CNC(=O)c2ccc(Cl)cc2Br)c1` [Example 376], no more than 10%.

Staying with this assay, now noted: Escherichia coli, ATCC25922, compound at 50 μM; minocycline 0.25 μg/mL; OD625 23 h minus 1 h; read-out: residual growth of E. coli ATCC25922 (% of uninhibited control) with minocycline.
Take `CC(C)COc1cc(CNCC2CCNC2)cc(OCc2cccnc2Br)c1` (stereo not shown) [Example 278]: the activity at 50 µM was no more than 50%. In the case of `Clc1ccc(/C=C/c2cc(CNCC3CCNC3)cc(OCc3ccccn3)c2)c(Br)c1` (stereo not shown) [Example 346], the activity at 50 µM is no more than 50%.
